Laboratory results from ChEMBL document CHEMBL1136728, “Antitumor activity of novel deoxoartemisinin monomers, dimers, and trimer” (J Med Chem, 2003).
≈ marks a conversion by molar mass, not a printed value.

Assays:
Assay type in all cases: functional, cell-based
BeWo = test: In vitro cytotoxicity of compound against Bewo, human choriocarcinoma was defined by microculture tetrazolium assay
EL4 = test: In vitro cytotoxicity of compound against EL4, mouse thymoma was defined by microculture tetrazolium assay
P388 = test: In vitro cytotoxicity of compound against P388, mouse […] leukemia was defined by microculture tetrazolium assay
HT-29 = test: In vitro cytotoxicity of compound against HT29, human colorectal adenocarcinoma was defined by microculture tetrazolium assay
MCF7 = test: In vitro cytotoxicity of compound against MCF7, human breast cancer was defined by microculture tetrazolium assay

| SMILES | IC50 (BeWo) | IC50 (EL4) | IC50 (P388) | IC50 (HT-29) | IC50 (MCF7) |
| --- | --- | --- | --- | --- | --- |
| CC(=O)O[C@H]1C(=O)[C@@]2(C)[C@H]([C@H](OC(=O)c3ccccc3)[C@]3(O)C[C@H](OC(=O)[C@H](O)[C@@H](NC(=O)c4ccccc4)c4ccccc4)C(C)=C1C3(C)C)[C@]1(OC(C)=O)CO[C@@H]1C[C@@H]2O [PACLITAXEL] | 7.39 µg/mL (≈ 8.65 µM) | 1.34 µg/mL (≈ 1.57 µM) | 2.27 µg/mL (≈ 2.66 µM) | 0.01 µg/mL (≈ 0.0117 µM) | – |
| CO[C@@]12[C@H](COC(N)=O)C3=C(C(=O)C(C)=C(N)C3=O)N1C[C@@H]1N[C@@H]12 [MITOMYCIN] | 0.85 µg/mL (≈ 2.54 µM) | 3.94 µg/mL (≈ 11.8 µM) | 1.5 µg/mL (≈ 4.49 µM) | 0.02 µg/mL (≈ 0.0598 µM) | 0.93 µg/mL (≈ 2.78 µM) |
| C[C@H]1[C@@H](CCS(=O)(=O)CC[C@H]2O[C@@H]3O[C@]4(C)CC[C@H]5[C@H](C)CC[C@@H]([C@H]2C)[C@]35OO4)O[C@@H]2O[C@]3(C)CC[C@H]4[C@H](C)CC[C@@H]1[C@]24OO3 | 1.04 µg/mL (≈ 1.59 µM) | 0.54 µg/mL (≈ 0.825 µM) | 5.6 µg/mL (≈ 8.55 µM) | 0.38 µg/mL (≈ 0.58 µM) | 0.025 µg/mL (≈ 0.0382 µM) |
| C[C@H]1[C@@H](CCC(=O)N[C@@H](CCC(=O)O)C(=O)O)O[C@@H]2O[C@]3(C)CC[C@H]4[C@H](C)CC[C@@H]1[C@]24OO3 | > 20 µg/mL | > 20 µg/mL | > 20 µg/mL | 8.6 µg/mL (≈ 18.3 µM) | 13.4 µg/mL (≈ 28.5 µM) |
| C[C@H]1[C@@H](CCNC(=O)CC[C@H](N)C(=O)NCC[C@H]2O[C@@H]3O[C@]4(C)CC[C@H]5[C@H](C)CC[C@@H]([C@H]2C)[C@]35OO4)O[C@@H]2O[C@]3(C)CC[C@H]4[C@H](C)CC[C@@H]1[C@]24OO3 | > 20 µg/mL | 16.5 µg/mL (≈ 22.5 µM) | 15.6 µg/mL (≈ 21.3 µM) | 6.5 µg/mL (≈ 8.86 µM) | 15.3 µg/mL (≈ 20.8 µM) |
| COc1cccc2c1C(=O)c1c(O)c3c(c(O)c1C2=O)C[C@@](O)(C(=O)CO)C[C@@H]3O[C@H]1C[C@H](N)[C@H](O)[C@H](C)O1 [DOXORUBICIN] | 6.24 µg/mL (≈ 11.5 µM) | 0.67 µg/mL (≈ 1.23 µM) | 0.39 µg/mL (≈ 0.718 µM) | 0.1 µg/mL (≈ 0.184 µM) | – |
| C[C@H]1[C@@H](CCNC(=O)CC[C@H]2O[C@@H]3O[C@]4(C)CC[C@H]5[C@H](C)CC[C@@H]([C@H]2C)[C@]35OO4)O[C@@H]2O[C@]3(C)CC[C@H]4[C@H](C)CC[C@@H]1[C@]24OO3 | 7.5 µg/mL (≈ 11.8 µM) | 6.29 µg/mL (≈ 9.92 µM) | 10.4 µg/mL (≈ 16.4 µM) | 0.69 µg/mL (≈ 1.09 µM) | 0.005 µg/mL (≈ 0.00789 µM) |
| C[C@H]1[C@@H](CCSCC[C@H]2O[C@@H]3O[C@]4(C)CC[C@H]5[C@H](C)CC[C@@H]([C@H]2C)[C@]35OO4)O[C@@H]2O[C@]3(C)CC[C@H]4[C@H](C)CC[C@@H]1[C@]24OO3 | 14.2 µg/mL (≈ 22.8 µM) | 0.23 µg/mL (≈ 0.369 µM) | 0.4 µg/mL (≈ 0.642 µM) | 0.24 µg/mL (≈ 0.385 µM) | 0.017 µg/mL (≈ 0.0273 µM) |
| C[C@H]1[C@@H](CCCCNC(=O)CC[C@H]2O[C@@H]3O[C@]4(C)CC[C@H]5[C@H](C)CC[C@@H]([C@H]2C)[C@]35OO4)O[C@@H]2O[C@]3(C)CC[C@H]4[C@H](C)CC[C@@H]1[C@]24OO3 | > 20 µg/mL | > 20 µg/mL | > 20 µg/mL | 20.2 µg/mL (≈ 30.5 µM) | > 20 µg/mL |
| C[C@H]1[C@@H](CCS(=O)(=O)CCCS(=O)(=O)CC[C@H]2O[C@@H]3O[C@]4(C)CC[C@H]5[C@H](C)CC[C@@H]([C@H]2C)[C@]35OO4)O[C@@H]2O[C@]3(C)CC[C@H]4[C@H](C)CC[C@@H]1[C@]24OO3 | 8.5 µg/mL (≈ 11.2 µM) | 10 µg/mL (≈ 13.1 µM) | 8.4 µg/mL (≈ 11 µM) | 0.38 µg/mL (≈ 0.499 µM) | 5.6 µg/mL (≈ 7.36 µM) |
| C[C@H]1[C@@H](CCCCN=[N+]=[N-])O[C@@H]2O[C@]3(C)CC[C@H]4[C@H](C)CC[C@@H]1[C@]24OO3 | > 20 µg/mL | 1.61 µg/mL (≈ 4.41 µM) | 10.3 µg/mL (≈ 28.2 µM) | 2.76 µg/mL (≈ 7.55 µM) | 11.6 µg/mL (≈ 31.7 µM) |
| C[C@H]1[C@@H](CCCCN)O[C@@H]2O[C@]3(C)CC[C@H]4[C@H](C)CC[C@@H]1[C@]24OO3 | > 20 µg/mL | 5.63 µg/mL (≈ 16.6 µM) | 6.18 µg/mL (≈ 18.2 µM) | 2.2 µg/mL (≈ 6.48 µM) | 0.02 µg/mL (≈ 0.0589 µM) |
| C[C@H]1[C@@H](CCNC(=O)CC[C@H](NC(=O)CC[C@H]2O[C@@H]3O[C@]4(C)CC[C@H]5[C@H](C)CC[C@@H]([C@H]2C)[C@]35OO4)C(=O)NCC[C@H]2O[C@@H]3O[C@]4(C)CC[C@H]5[C@H](C)CC[C@@H]([C@H]2C)[C@]35OO4)O[C@@H]2O[C@]3(C)CC[C@H]4[C@H](C)CC[C@@H]1[C@]24OO3 | 18.3 µg/mL (≈ 17.3 µM) | 1.07 µg/mL (≈ 1.01 µM) | 0.12 µg/mL (≈ 0.114 µM) | 0.09 µg/mL (≈ 0.0852 µM) | 0.017 µg/mL (≈ 0.0161 µM) |
